Reference: US20150315202A1, “CHLORIN DERIVATIVE USEFUL IN PHOTODYNAMIC THERAPY AND DIAGNOSIS” (RMW CHO GROUP LIMITED, priority 2012, published 2015)

Assays:
[1] = test system: advanced pancreatic cancer with metastases in the liver; assay: In vivo studies Example 7: patient, oral chlorin e4 sodium plus laser and LED light; parameters: species or system human
Procedure: A patient with advanced pancreatic cancer with metastases in the liver, was treated successfully. Prior to treatment the patient was in poor health generally and suffering from extreme weight loss, pain and other typical symptoms of advanced pancreatic cancer. The treatment consisted of three courses. For each course, five doses of 62.5-187.5 mg chlorin e4 sodium were administered orally over the course of eight days. About 24 hours after each oral dose of chlorin e4 sodium, the patient was treated with laser and LED light having a wavelength of 660 nm and 760 nm.

[2] = test system: advanced metastatic kidney disease with metastases in the gall bladder, liver and lung; assay: In vivo studies Example 3: patient, oral chlorin e4 sodium plus laser and LED light; parameters: species or system human
Procedure: A patient with advanced metastatic kidney disease with metastases in the gall bladder, liver and lung, was treated successfully. The treatment consisted of three courses. For each course, five doses of 62.5-187.5 mg chlorin e4 sodium were administered orally over the course of eight days. 24-48 hours after each oral dose of chlorin e4 sodium, the patient was treated with laser and LED light having a wavelength of 660 nm and 760 nm.
Subsequently the patient was treated with a further two courses. Again, for each course, five doses of 62.5-187.5 mg chlorin e4 sodium were administered orally over the course of eight days. 24-48 hours after each oral dose of chlorin e4 sodium, the patient was treated with laser and LED light having a wavelength of 660 nm and 760 nm. Additionally an interstitial light treatment using a fine needle was performed on the liver and lung with an optical fibre laser having a wavelength of 660 nm and 760 nm.

[3] = test system: non-small cell lung cancer with metastases in the lymph nodes and bones; assay: In vivo studies Example 8: patient, oral chlorin e4 sodium plus laser and LED light; parameters: species or system human
Procedure: A patient with non-small cell lung cancer with metastases in the lymph nodes and bones, was treated successfully. The treatment consisted of two courses. For each course, five doses of 62.5-187.5 mg chlorin e4 sodium were administered orally over the course of eight days. About 24 hours after each oral dose of chlorin e4 sodium, the patient was treated with laser and LED light having a wavelength of 660 nm and 760 nm.

[4] = test system: brain cancer with metastases in the lung and lymph nodes; assay: In vivo studies Example 12: patient, oral chlorin e4 sodium plus laser and LED light; parameters: species or system human; conditions: after two courses
Procedure: A patient with brain cancer with metastases in the lung and lymph nodes, was treated successfully. […] The patient experienced occasional epileptic seizures and severe headaches. The treatment consisted of two courses. For each course, five doses of 62.5-187.5 mg chlorin e4 sodium were administered orally over the course of eight days. 24-48 hours after each oral dose of chlorin e4 sodium, the patient was treated with laser and LED light having a wavelength of 660 nm and 760 nm.

[5] = Absorption spectra of chlorin e4 sodium solutions; format: physicochemical; conditions: all solvents (ethanol, water, water + SDS)
Procedure: Absorption spectra were recorded using computerized spectrophotometers Hitachi 3400 (Japan) and SF-2000 (Russia). Fluorescence spectra were measured with a computerized spectrofluorimeter Perkin-Elmer MPF-44B. 10 mm wide quartz cuvettes were used for absorption and fluorescence measurements. Fluorescence was detected at a right angle to the excitation beam. The spectral bandwidth of the monochromator was 3 nm. […] The fluorescence quantum yields (ΦF) were determined using as a reference, solutions of TPPS (m-tetrakis(p-sulfonatophenyl)porphine) in ethanol. According to the literature, the most likely fluorescence quantum yield of TPPS in air-saturated water and ethanol is equal to 0.08 (K. Kalyanasundaram and M. Neumann-Spallart, Photophysical and redox properties of water soluble porphyrins in aqueous media, J. Phys. Chem., 1982, 86, 5163-5169; and A. T. Gradyushko, A. N. Sevchenko, K. N. Solovyov and M. P. Tsvirko, Energetics of photophysical processes in chlorophyll-like molecules, Photochem. Photobiol., 1970, 11, 387-400). The fluorescence of the samples was excited by the monochromatic light corresponding to the maximum of the Soret bands: 415 nm for TPPS in ethanol and 413 nm for TPPS in water, and 403 nm for chlorin e4 sodium in water and ethanol. The monochromator bandwidth was 3 nm. The fluorescence quantum yields (ΦF) were calculated using the following equation: […]

What does the source list for `C=Cc1c(C)c2cc3nc(c(C)c4[nH]c(cc5nc(cc1[nH]2)C(C)=C5CC)c(C)c4C(=O)O)[C@@H](CCC(=O)O)[C@@H]3C` [chlorin e4 sodium]?
Response in the pancreatic area (PET/CT) ([1]; before and after three courses): improvements and a good treatment response; Pain ([1]; three courses): suffered less pain; Photosensitive reaction ([1]; three courses): no photosensitive reaction; Response (PET/CT) ([2]; after a further two courses with interstitial light on liver and lung): good treatment response; Metastasis ([2]; after three courses): No further metastasis was observed; Tumours throughout the body (PET/CT) ([2]; before and two, three, five and 15 months after three courses): some tumours disappeared altogether and the remaining tumours reduced in size; Side effects ([2]; five courses): no side effects; Survival time ([2]; life expectancy prior to treatment only six months): two years and four months; Patient status ([3]; 10 months after starting, seven months after completion of treatment): alive and well; Response of the lungs (PET/CT) ([3]; before and after two courses): many tumours disappearing and the remaining tumours showing no or low metabolic activity; Side effects ([3]; two courses): no side effects; Lymph nodes (PET/CT) [4]: not yet clear; Metabolic activity in the area of the brain tumour (PET/CT) [4]: no metabolic activity; Response in the lungs (PET/CT) [4]: complete response; Aggregation state from absorption spectra [5]: mostly monomeric
